Consider two compounds from ChEMBL document CHEMBL1156505, “Allosteric transinhibition by specific antagonists in CCR2/CXCR4 heterodimers” (J Biol Chem, 2007).

Assay [1] has as its target T1, C-C chemokine receptor type 2 (Homo sapiens, UniProt P41597). Description: Displacement of [125I]SDF1alpha from CCR2/CXCR4 expressed in CHOK1 cells. Format: cell-based. The following applies: CHO-K1; concentration not given here. A general note: In a radioligand displacement assay an active substance lowers the binding of a labelled ligand.
Target sequence in this assay (P41597 whole entry, looked up): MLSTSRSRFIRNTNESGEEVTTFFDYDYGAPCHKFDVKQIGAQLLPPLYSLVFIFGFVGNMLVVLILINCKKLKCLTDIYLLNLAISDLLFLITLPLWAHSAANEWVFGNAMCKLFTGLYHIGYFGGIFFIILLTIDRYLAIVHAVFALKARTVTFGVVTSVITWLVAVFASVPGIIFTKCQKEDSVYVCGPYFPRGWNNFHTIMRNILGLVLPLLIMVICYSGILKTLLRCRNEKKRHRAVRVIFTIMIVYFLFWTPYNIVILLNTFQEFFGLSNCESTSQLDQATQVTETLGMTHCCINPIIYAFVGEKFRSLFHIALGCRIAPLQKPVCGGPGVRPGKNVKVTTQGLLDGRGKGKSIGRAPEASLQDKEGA
Assay [2] concerns the target T1, C-C chemokine receptor type 2. Description: Displacement of [125I]MCP1 from CCR2/CXCR4 expressed in CHOK1 cells. The class given is cell-based. The following applies: CHO-K1; concentration not given here.
Target sequence in this assay (P41597 whole entry, looked up): as above
The species entered for another assay is Homo sapiens. The experiment in a line: Inhibition of migration of human CD4+ lymphoblasts towards MCP1 by chemotaxis assay. The class given is functional.
Assay [3] has as its target T1, C-C chemokine receptor type 2. Description: biochemical.
Target sequence in this assay (P41597 whole entry): as the sequence (P41597 whole entry, looked up) above
Description: Displacement of [125I]MCP1 from CCR2 expressed in CHOK1 cells

The structures appear in SMILES notation. Active and inactive are the calls of the source. No cut-off for these calls is given here.

Take `c1cc(CN2CCCNCCNCCCNCC2)ccc1CN1CCCNCCNCCCNCC1`: the inhibition in assay [1] is 87.1%; in assay [2] it was 36.2%.

Turning to `Cc1ccc(-c2ccc3c(c2)C=C(C(=O)Nc2ccc(C[N+](C)(C)C4CCOCC4)cc2)CCC3)cc1`, the inhibition in assay [1] amounted to 38.1%; in assay [2], 90.7%. For the same compound, the result in the assay filed under Homo sapiens was Active. Besides, the IC50 in assay [3] came out at 250 pM.

What is called inhibition is the relative decrease from the control value, in per cent. A word on the IC50: it is the concentration needed to halve the response being measured. Read a high IC50 as a need for much substance.
